Assay results taken from patent publication US9650614B2, “Anaplastic lymphoma kinase (ALK) as oncoantigen for lymphoma vaccination” (priority 2007, dated 2017).
“Also recorded” adds a separate entry of the source.

What was measured:
NPM-ALK lymphoma cells [1] = assay: in vitro survival of lymphoma cells with doxorubicin (TMRM staining, flow cytometry); assay type: cell-based, murine; conditions: 24 or 48 hours, increasing concentrations
Description: FIG. 6. NPM-ALK lymphoma cells are sensitive to doxorubicin. NPM-ALK lymphoma cells were incubated in vitro for 24 or 48 hours with increasing concentrations of doxorubicin. Percentages of alive cells were calculated by TMRM staining and flow cytometry analyses.
To mimic more strictly these clinical settings, the efficiency of the vaccination strategy disclosed herein in association with chemotherapy, which remains the standard therapeutic strategy for human Anaplastic Large Cell Lymphomas (ALCL), was tested.

NPM-ALK lymphoma cells [2] = assay: i.v. lymphoma treated with single dose doxorubicin followed by DNA vaccination; assay type: in vivo, BALB/c mice
Text: FIG. 2. Efficacy of ALK vaccination in preventing disseminated lymphoma growth and in lymphoma therapy (a,b) Disseminated growth of NPM-ALK lymphoma cells injected in the tail vein in mock or ALK plasmid vaccinated BALB/c mice. (a) All mock vaccinated mice challenged i.v. 7 days after the second vaccination with 1×10^6 NPM-ALK lymphoma died of lymphoma outgrowth within 50 days after challenge while 70% of ALK vaccinated mice remained alive and well for all the observation period of 180 days. […] (c) Increasing amounts of NPM-ALK lymphoma cells were injected s.c. in BALB/c mice on day 0. Mice were then vaccinated as described above on days 1 and 8. Tumor growth was followed over time. Data are from one of two independent experiments with at least 7 mice for each group. * P<0.01. (d) BALB/c mice were i.v. injected with 1×10^6 NPM-ALK lymphoma cells on day 0. On day 7 mice received i.v. 10 mg/kg of doxorubicin (dashed arrow) followed on days 14, 21 and 28 by DNA vaccination with empty (mock) or ALK-expressing plasmids (full arrows). Mice were then followed up to 90 days. […] Tumor size was measured over time. […]
A single dose chemotherapy protocols was employed using doxorubicin (10 mg/kg) 7 day prior the i.v. injection of a challenging dose (1×10^6) of NPM-ALK positive lymphoma cells. […] Tumor growth and overall survival were determined, overtime.

[3] = test system: NPM-ALK expressing lymphoma cells; assay: s.c. challenge with NPM-ALK lymphoma cells after DNA vaccination; assay type: in vivo, BALB/c mice; conditions: vaccinated twice at a week interval; s.c. challenge one week after second vaccination
Description: FIG. 1. ALK vaccination prevents the growth of NPM-ALK positive lymphoma cells. (a,b) BALB/c mice were vaccinated on day 0 and 7 in both the tibial muscles with 40 μg of pDEST plasmid or with pDEST-ALK (ALK) plasmid coding for the full ALK tyrosine kinase intracytoplasmic domain (a) or with pDEST-ALKt (ALKt) coding for a truncated portion of ALK lacking the part of the tyrosine kinase domain (b). An additional group of mice was vaccinated with the pDEST-ALK or pDEST-ALKt plasmids combined with the same amount of a pcDNA3 plasmid coding for GM-CSF. […]
Mice were challenged subcutaneously in the right flank with 0.2 ml PBS of a single suspension containing 10^5 to 10^6 ALK-OVA and VAC lymphoid cells, as indicated in each experiment. The cages were coded, and the incidence and the growth of tumors were evaluated at the indicated times in a blind fashion. Neoplastic masses were measured with calipers in the two perpendicular diameters.
For DNA electroporation, 50 μg of pDEST empty vector or pDEST-ALK (ALK) vector in 20 μl of 0.9% NaCl with 6 mg/ml polyglutamate were injected on days 0 and 7 into both the tibial muscle of anesthetized BALB/c mice. […] Protection was evaluated as the percentage of lymphoma-free mice 21 days after challenge.

Molecule	sensitivity of lymphoma cells (apoptosis / alive cells) (NPM-ALK lymphoma cells [1])	cure rate (NPM-ALK lymphoma cells [2]; chemotherapy alone (single dose doxorubicin one week after 1×10^6 cells i.v.))	survival (NPM-ALK lymphoma cells [2]; chemotherapy alone versus untreated mice)	protection from localized lymphoma growth [3]
COc1cccc2c1C(=O)c1c(O)c3c(c(O)c1C2=O)C[C@@](O)(C(=O)CO)C[C@@H]3O[C@H]1C[C@H](N)[C@H](O)[C@H](C)O1 [doxorubicin]	sensitive; also recorded: rapid apoptosis with low doses	60%	prolonged their survival	–
pDEST-ALK^K210R: pDEST plasmid encoding cytoplasmic portion of kinase dead mutant K210R of ALK (SEQ ID No.:3)	–	–	–	total protection
pDEST-ALKt: pDEST plasmid with truncated form of ALK lacking part of the tyrosine kinase domain (SEQ ID No.: 2) (nucleic acid, portion of cytoplasmic domain of ALK - human) DNA: TGCTTTGCTGGCAAGACCTCCTCCATCAGTGACCTGAAGGAGGTGCCGCGGAAAAACATCACCCTCATTCGGGGTCTGGGCCATGGCGCCTTTGGGGAGGTGTATGAAGGCCAGGTGTCCGGAATGCCCAACGACCCAAGCCCCCTGCAAGTGGCTGTGAAGACGCTGCCTGAAGTGTGCTCTGAACAGGACGAACTGGATTTCCTCATGGAAGCCCTGATCATCAGCAAATTCAACCACCAGAACATTGTTCGCTGCATTGGGGTGAGCCTGCAATCCCTGCCCCGGTTCATCCTGCTGGAGCTCATGGCGGGGGGAGACCTCAAGTCCTTCCTCCGAGAGACCCGCCCTCGCCCGAGCCAGCCCTCCTCCCTGGCCATGCTGGACCTTCTGCACGTGGCTCGGGACATTGCCTGTGGCTGTCAGTATTTGGAGGAAAACCACTTCATCCACCGAGACATTGCTGCCAGAAACTGCCTCTTGACCTGTCCAGGCCCTGGAAGAGTGGCCAAGATTGGAGACTTCGGGATGGCCCGAGACATCTACAGGGCGAGCTACTATAGAAAGGGAGGCTGTGCCATGCTGCCAGTTAAGTGGATGCCCCCAGAGGCCTTCATGGAAGGAATATTCACTTCTAAAACAGACACATGGTCCTTTGGAGTGCTGCTATGGGAAATCTTTTCTCTTGGATATATGCCATACCCCAGCAAAAGCAACCAGGAAGTTCTGGAGTTTGTCACCAGTGGAGGCCGGATGGACCCACCCAAGAACTGCCCTGGGCCTGTATACCGGATAATGACTCAGTGCTGGCAACATCAGCCTGAAGACAGGCCCAACTTTGCCATCATTTTGGAGAGGATTGAATACTGCACCCAGGACCCGGATGTAATCAACACCGCTTTG	–	–	–	total protection
